In patent publication US5385891A, “Polysulfate of β-cyclodextrin derivative and process for preparing the same” (Tanabe Seiyaku Co., Ltd., priority 1991, dated 1995) one finds IC100 data, which are given here for two compounds.

Counter-ions that a name gives are not always drawn.

The test concerns HIV in MT-4 cells. In words: HIV Proliferation Inhibitory Activity (MT-4 cells, 10% FCS). The class given is cell-based, HIV (a culture supernatant of TALL-1/LAV-1). The note with it: Human immunodeficiency virus 1, MT4, 120 h, read-out: HIV proliferation inhibitory activity, 100% inhibition concentration. Here is the method: It is known that when MT-4 cells which are sustaining infectious cell lines of human T-cell Leukemia virus I type (HTLV-I) are infected with HIV, HIV proliferates rapidly and the MT-4 cells are killed in 5 to 6 days due to the cellular damage. Therefore, HIV proliferation inhibitory activity of a sample can be evaluated by examining the number of viable cells of the MT-4 cells infected with HIV.
MT-4 cells were infected with HIV (a culture supernatant of TALL-1/LAV-1) at 37° C. for one hour so that TCID50 (median tissue culture infectious dose)/cell might be 0.001, followed by washing with the medium. The infected MT-4 cells were then suspended at a concentration of 1×10^5 cell/ml in RPMI-1640 media (containing 10% of FCS (fetal calf serum)) containing samples of various concentrations, respectively. Each of the thus obtained cell suspension was introduced in a flat bottom culture plate in an amount of 200 μl/well and was incubated at 37° C. in the presence of 5% carbon dioxide for 5 days. After incubation, the number of viable cells in the cell suspension was counted by the Tripan-Blue Staining Method. The HIV proliferation inhibitory activity of a sample was evaluated in terms of the concentration of the sample which suppresses by 100% the infectiousness and the cell modification activity of HIV in MT-4 cells.

Consider `O=S(=O)(O)OC[C@H]1O[C@@H]2O[C@H]3[C@H](OS(=O)(=O)O)[C@@H](OCc4ccccc4)[C@@H](O[C@H]4[C@H](OS(=O)(=O)O)[C@@H](OCc5ccccc5)[C@@H](O[C@H]5[C@H](OS(=O)(=O)O)[C@@H](OCc6ccccc6)[C@@H](O[C@H]6[C@H](OS(=O)(=O)O)[C@@H](OCc7ccccc7)[C@@H](O[C@H]7[C@H](OS(=O)(=O)O)[C@@H](OCc8ccccc8)[C@@H](O[C@H]8[C@H](OS(=O)(=O)O)[C@@H](OCc9ccccc9)[C@@H](O[C@H]1[C@H](OS(=O)(=O)O)[C@H]2OCc1ccccc1)O[C@@H]8COS(=O)(=O)O)O[C@@H]7COS(=O)(=O)O)O[C@@H]6COS(=O)(=O)O)O[C@@H]5COS(=O)(=O)O)O[C@@H]4COS(=O)(=O)O)O[C@@H]3COS(=O)(=O)O` [Example 1, sodium salt of heptakis(2-O-benzyl)-β-cyclodextrin polysulfate], for which the IC100 came to 0.98 µg/mL.
Consider `O=S(=O)(O)OC[C@H]1O[C@@H]2O[C@H]3[C@H](OS(=O)(=O)O)[C@@H](OCc4ccc(F)cc4)[C@@H](O[C@H]4[C@H](OS(=O)(=O)O)[C@@H](OCc5ccc(F)cc5)[C@@H](O[C@H]5[C@H](OS(=O)(=O)O)[C@@H](OCc6ccc(F)cc6)[C@@H](O[C@H]6[C@H](OS(=O)(=O)O)[C@@H](OCc7ccc(F)cc7)[C@@H](O[C@H]7[C@H](OS(=O)(=O)O)[C@@H](OCc8ccc(F)cc8)[C@@H](O[C@H]8[C@H](OS(=O)(=O)O)[C@@H](OCc9ccc(F)cc9)[C@@H](O[C@H]1[C@H](OS(=O)(=O)O)[C@H]2OCc1ccc(F)cc1)O[C@@H]8COS(=O)(=O)O)O[C@@H]7COS(=O)(=O)O)O[C@@H]6COS(=O)(=O)O)O[C@@H]5COS(=O)(=O)O)O[C@@H]4COS(=O)(=O)O)O[C@@H]3COS(=O)(=O)O` [Example 6], for which the IC100 stood at 3.9 µg/mL.
